Read-outs that look alike come from different tables or passages of the source.
Legend:
WM-266-4 cells [1] = experiment: Adhesion assay with WM-266-4 cells on fibronectin; assay type: cell-based, human
Method: Microtiter plates with 96 wells were coated with 0.5 µg of fibronectin in 50 µl over night at 4° C and blocked with 200 µl adhesion buffer (1% BSA in PBS without Ca^2+/Mg^2+). WM-266-4 cells were pre-incubated with the test compounds at the respective concentrations in serum free medium for 60 min in a shaker (600 rpm) at 37° C. Afterwards, 4 x 10^4 cells in 100 µl were withdrawn and added into each well and incubated for 1 h at 37° C. Medium and non-adherent cells were aspirated and adherent cells were fixed in 4% formalin in PBS. The plates were washed with 0.01 M borate buffer (Stock-solution: 20 mM boric acid, 100 mM sodium tetraborate; pH 8.5; working solution: 0.01 M dilution in H2O) and 50 µl of 0.01 % methylene blue in borate buffer were added, wherein the cells were stained for 10 min at room temperature. The plates were extensively washed with water and air-dried. The air-dried plates were incubated for 45 min with 200 µl/well extraction buffer (a mixture of 0.1 N HCl and absolute EtOH (1:1, vol/vol)), wherein the adherent cells were quantified in an ELISA-reader, which read the extinction at 651 nm.
The human melanoma cells adhered to the fibronectin coated cell culture dishes. This adhesion is a prerequisite for growth of circulating cells such as occurs when these metastasize to sites distant from the tumor. The compounds described herein can inhibit such adhesion to the extracellular matrix protein fibronection or laminin to various degrees.

WM-115 cells = experiment: Wound healing assay (cell migration); assay type: cell-based, human; parameters: key to inhibit the cell migration of WM-115 cells: (-) means that the cell migration was not inhibited and that the wound healed; (+) means a slight inhibition, which slows the trend to heal; (++) means that the cell migration was inhibited, since only some cells were visible in the wound; (+++) means the absolute inhibition of cell migration; conditions: for concentration at which the migration of human melanoma cells is inhibited: summary of Table 1
Method: The compounds of the present invention were analyzed by means of a migration-assay, called "wound healing assay", that determines the inhibition-rate of the compounds on human melanoma cell line migration. Another migration assay, the so-called the Oris™ cell migration assay, is also applicable to examine the cell migration inhibitory effects of the compounds of the present invention. The used melanoma cells lines were WM-115 and WM-266-4, which are accepted in-vitro model cell systems. The human cell line WM-115 is derived from the primary tumor of a vertical growth phase (VGP) melanoma, whereas the cell line WM-266-4 is derived from the corresponding cutaneous metastasis. The "wound healing assay" is applicable to examine the cell migration inhibitory effects of the compounds of the present invention, which is described in further detail in the Examples. Furthermore, the "wound healing assay" is based on the fact that when wounded or scratched, cell monolayers respond to the disruption of cell-cell contacts and an increased concentration of growth factors at the wound margin by healing the wound through a combination of proliferation and migration, according to Yarrow, J.C., et al., BMC Biotechnol., 2004: 4, 21-29. In order to investigate the cell migration an intact cell monolayer is wounded with a pipette tip.
The wound healing assay has been carried out according to description as disclosed in Yarrow, J.C., et al., BMC Biotechnol., 2004: 4, 21-29. For carrying out the wound healing assay, 2 x 10^5 cells were grown in one well of a 12-well-plate under cell culture specific conditions for 24 h. After 24 h, a wound has been scratched in the confluently grown cell monolayer with a 100 µl pipette-tip. Detached cells were removed by washing with serum-free medium and new media with the respective compounds to be tested were supplemented with varying amounts. The cells were incubated under cell culture specific conditions and always the same section was photographed after 2, 4, 8 and 24 under the phase contrast microscope. The untreated cells healed the wound through a combination of proliferation and migration after 24 h.
The following table (Table 1) is a summary of the results obtained by carrying out the above described wound healing assay with varying amounts of compounds of the present invention to inhibit the cell migration of WM-115 cells, wherein (-) means that the cell migration was not inhibited and that the wound healed, (+) means a slight inhibition, which slows the trend to heal, (++) means that the cell migration was inhibited, since only some cells were visible in the wound, and (+++) means the absolute inhibition of cell migration. The abbreviation "n.d." means "not determined".

human melanoma cells [2] = experiment: Vitality test with Trypanblue; conditions: cells of the migration assay
murine B16F10 cells = conditions: cited from earlier work
human WM-115 cells = conditions: cited from earlier work
[3] = test system: matrix-metalloproteinase-2 (MMP-2); conditions: cited from earlier work
WM-115 [4] = conditions: WM-115, at 5 mM; cited from earlier work
WM-266-4 cells [5] = conditions: WM-266-4, at 5 mM; cited from earlier work
WM-115 [6] = conditions: WM-115, 5 mM; cited from earlier work
WM-266-4 = conditions: WM-266-4, 2.5 mM; cited from earlier work
HBMEC-60 cells = experiment: Adhesion assay with HBMEC cells (TNF-α stimulated) on laminin; assay type: cell-based, human
Method: Microtiter plates with 96 wells coated with the extracellular matrix component type I collagen, fibronenctin or laminin were used. HBMEC-60 cells which had been pre-incubated with the tumor necrosis factor (TNF-α, 40 ng/ml) for 24 hrs were incubated with the test compounds at the respective concentrations in serum free medium for endothelial cells (Promozell, Heidelberg, Germany) without growth factors for 30 min in 1.5 mL microfuge tubes (Eppendorf, Hamburg, Germany). Afterwards, 4 x 10^4 HBMEC-60 cells in 100 µl were withdrawn and added into each well. The plates were incubated at 37° C for 30 min and subsequently washed twice with PBS (with CaCl2 und MgSO4). Then, the adherent cells were fixed, washed and stained with methylene blue, the dye released and the extinction read as described above for the experiments with the melanoma cells.
Adhesion of endothelial cells to extracellular matrix proteins like laminin is a prerequisite for angiogenesis.

human melanoma cells [7] = test system: human melanoma cells

Row | SMILES | inhibit the cell migration of WM-115 cells (WM-115 cells; Concentration 1 mM) | inhibit the cell migration of WM-115 cells (WM-115 cells; Concentration 2.5 mM) | inhibit the cell migration of WM-115 cells (WM-115 cells; Concentration 5mM) | inhibition of the adhesion of WM-266-4 cells to fibronectin (WM-266-4 cells [1]; concentration of 5 mM) | inhibit the cell migration of WM-115 cells (WM-115 cells; Concentration 0.1 mM) | concentration at which the migration of human melanoma cells is inhibited (WM-115 cells) | vitality test with Trypanblue (human melanoma cells [7]) | other results
1 | OC[C@H]1O[C@@H](OCc2cocc2CF)[C@H](O)[C@@H](O)[C@H]1O [GFF, 3-(β-D-galactopyranosyl-oxymethyl)-4-(fluoro-methyl)-furan] | + | +++ | +++ |  |  |  |  | inhibition at 100 µM (WM-266-4 cells [1]; Homo sapiens, WM 266-4, concentration of 0.1 mM): 34%; inhibition at 5000 µM (WM-266-4 cells [1]; Homo sapiens, WM 266-4, concentration of 5 mM): 62%; vitality test with Trypanblue (human melanoma cells [2]): cells were intact
2 | O=S(=O)(O)OCc1cocc1CO[C@@H]1O[C@H](CO)[C@H](O)[C@H](O)[C@H]1O [GSF, 3-β-D-galactopyranosyl-oxymethyl-4-sulfato-methyl-furan] | - | + | +++ | 26% | - | greater than or equal to 2.5 mM |  | inhibition of the adhesion of WM-266-4 cells to fibronectin (WM-266-4 cells [1]; concentration of 0.1 mM): 8%; inhibition of adhesion to fibrinogen (murine B16F10 cells; at 20 mM or rather 10 mM): completely inhibits; inhibition of adhesion to fibronectin (murine B16F10 cells; at 40 mM): completely inhibits; inhibition of adhesion to fibrinogen (human WM-115 cells; at 20 mM or rather 10 mM): completely inhibits; inhibition of adhesion to fibronectin (human WM-115 cells; at 40 mM): completely inhibits; activation of the matrix-metalloproteinase-2 (MMP-2) [3]: decreased; inhibition of migration (WM-115 [4]): inhibited; inhibition of migration (WM-266-4 cells [5]): inhibited; inhibition of cell migration into a wound (WM-115 [6]): no detectable migration; inhibition of cell migration into a wound (WM-266-4): no detectable migration
3 | O=S(=O)(O)OCc1cocc1CO[C@@H]1O[C@H](COS(=O)(=O)O)[C@H](O)[C@H](O)[C@H]1O [GSSF, 3-(6-sulfato-β-D-galactopyranosyl-oxymethyl)-4-(sulfatomethyl)-furan] | ++ | +++ | +++ |  | ++ | 0.1 mM | cells were intact | inhibition of HBMEC-60 cell adhesion to laminin (HBMEC-60 cells; 10 mM, compared with 10 mM GSF): better inhibitor; inhibition of endothelial cell adhesion to laminin (HBMEC-60 cells; concentrations of 0.1, 0.5, 1 and 5 mM): significantly inhibited
4 | O=S(=O)(O)OCc1cocc1CO[C@@H]1O[C@H](CO)[C@@H](O)[C@H](O)[C@H]1O [GluSF, 3-(β-D-glucopyranosyl-oxymethyl)-4-(sulfatomethyl)-furan] | + | + | +++ | 79% | - | 1 mM | cells were intact | 
